In ChEMBL document CHEMBL1772962, “In vitro and in vivo evaluation of 6-aminopyrazolyl-pyridine-3-carbonitriles as JAK2 kinase inhibitors” (Bioorg Med Chem Lett, 2011):
pIC50: −log10 of the molar value. ≈ marks a conversion by molar mass, not a printed value. Calls of active or inactive are those of the source. The calls are words filed in the database; no cut-off is given here.

Tests used:
[1] = biological target: T1, Tyrosine-protein kinase JAK3 (Homo sapiens, UniProt P52333); test: Inhibition of JAK3 after 60 min
T1 sequence (P52333 whole entry): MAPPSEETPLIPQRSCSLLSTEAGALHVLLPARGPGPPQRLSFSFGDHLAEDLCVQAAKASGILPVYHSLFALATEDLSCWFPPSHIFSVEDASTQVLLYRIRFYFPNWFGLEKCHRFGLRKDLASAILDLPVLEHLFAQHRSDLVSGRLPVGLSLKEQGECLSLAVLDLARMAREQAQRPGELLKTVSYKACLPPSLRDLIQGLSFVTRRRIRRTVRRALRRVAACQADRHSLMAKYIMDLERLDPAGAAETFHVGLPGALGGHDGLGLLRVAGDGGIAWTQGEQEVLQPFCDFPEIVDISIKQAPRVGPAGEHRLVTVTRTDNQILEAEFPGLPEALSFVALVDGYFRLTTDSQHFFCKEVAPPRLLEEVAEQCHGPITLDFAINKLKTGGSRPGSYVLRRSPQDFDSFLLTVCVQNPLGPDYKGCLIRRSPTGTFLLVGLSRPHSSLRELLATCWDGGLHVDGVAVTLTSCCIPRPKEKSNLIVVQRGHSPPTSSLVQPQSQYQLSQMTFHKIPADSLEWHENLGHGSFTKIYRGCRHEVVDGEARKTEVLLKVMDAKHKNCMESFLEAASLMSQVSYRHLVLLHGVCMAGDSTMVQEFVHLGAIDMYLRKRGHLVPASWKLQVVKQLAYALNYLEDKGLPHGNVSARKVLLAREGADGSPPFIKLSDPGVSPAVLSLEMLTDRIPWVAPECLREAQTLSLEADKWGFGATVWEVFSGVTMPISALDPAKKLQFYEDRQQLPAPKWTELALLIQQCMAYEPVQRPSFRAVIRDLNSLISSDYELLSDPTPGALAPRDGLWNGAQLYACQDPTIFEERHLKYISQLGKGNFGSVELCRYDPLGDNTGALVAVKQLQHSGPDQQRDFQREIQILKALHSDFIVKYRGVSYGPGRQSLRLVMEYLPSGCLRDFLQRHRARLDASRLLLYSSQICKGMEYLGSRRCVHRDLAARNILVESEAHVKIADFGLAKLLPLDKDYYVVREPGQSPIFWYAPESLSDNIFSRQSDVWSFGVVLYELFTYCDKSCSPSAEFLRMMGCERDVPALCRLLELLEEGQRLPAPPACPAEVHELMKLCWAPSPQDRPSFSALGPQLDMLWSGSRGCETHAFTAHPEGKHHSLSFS

[2] = Half life in Han Wistar rat at 10 mg/kg, po and 3 mg/kg, iv; type: ADME, organism-based; conditions: in vivo
[3] = Intrinsic clearance in Han Wistar rat microsomes at 10 mg/kg, po and 3 mg/kg, iv; type: ADME, Microsome
[4] = Aqueous solubility of compound; type: physicochemical
[5] = biological target: T2, Tyrosine-protein kinase JAK2 (Homo sapiens, UniProt O60674); test: Inhibition of JAK2 after 60 min
[6] = Clearance in Han Wistar rat at 10 mg/kg, po and 3 mg/kg, iv; type: ADME, organism-based; conditions: in vivo
[7] = Oral bioavailability in Han Wistar rat at 10 mg/kg; type: ADME, organism-based; conditions: in vivo
[8] = Growth inhibition of human SET2 cells expressing JAK2 V617F mutant after 48 hrs by alamar blue assay; type: functional; conditions: SET-2, 48 h
[9] = biological target: T2, Tyrosine-protein kinase JAK2; test: Inhibition of TEL-fused JAK2-induced proliferation of mouse BA/F3 cells; type: cell-based; conditions: BaF3
[10] = Volume of distribution at steady state in Han Wistar rat at 10 mg/kg, po and 3 mg/kg, iv; type: ADME, organism-based; conditions: in vivo, read-out: Vdss
[11] = biological target: T3, Tyrosine-protein kinase JAK3 (Homo sapiens) (UniProt P52333); test: Inhibition of TEL-fused JAK3-induced proliferative activity against mouse BA/F3 cells; type: cell-based; conditions: BaF3
T3 sequence (whole entry): T1 sequence (P52333 whole entry)

[12] = Oral bioavailability in dog; type: ADME, organism-based, Canis lupus familiaris; conditions: in vivo
[13] = Plasma concentration in NCr mouse tansplanted with TEL-JAK2 expressing mouse BA/F3 cells at 10 mg/kg, po after 6 hrs; type: ADME, organism-based, BaF3; parameters: dose 10 mg/kg, route oral
[14] = Fraction unbound in human plasma; type: ADME, cell-free
[15] = Clearance in dog; type: ADME, organism-based, Canis lupus familiaris; conditions: in vivo
Mus musculus [16] = test: Inhibition of STAT5 phosphorylation in NCr mouse tansplanted with TEL-JAK2 expressing mouse BA/F3 cells at 2.5 mg/kg, po upto 2 hrs; type: functional, organism-based; parameters: dose 2.5 mg/kg; conditions: BaF3
[17] = Half life in dog; type: ADME, organism-based, Canis lupus familiaris; conditions: in vivo
Ephrin type-B receptor 2 = biological target: T4, Ephrin type-B receptor 2 (Homo sapiens, UniProt P29323); test: Inhibition of human EphB2
T4 sequence (P29323 whole entry): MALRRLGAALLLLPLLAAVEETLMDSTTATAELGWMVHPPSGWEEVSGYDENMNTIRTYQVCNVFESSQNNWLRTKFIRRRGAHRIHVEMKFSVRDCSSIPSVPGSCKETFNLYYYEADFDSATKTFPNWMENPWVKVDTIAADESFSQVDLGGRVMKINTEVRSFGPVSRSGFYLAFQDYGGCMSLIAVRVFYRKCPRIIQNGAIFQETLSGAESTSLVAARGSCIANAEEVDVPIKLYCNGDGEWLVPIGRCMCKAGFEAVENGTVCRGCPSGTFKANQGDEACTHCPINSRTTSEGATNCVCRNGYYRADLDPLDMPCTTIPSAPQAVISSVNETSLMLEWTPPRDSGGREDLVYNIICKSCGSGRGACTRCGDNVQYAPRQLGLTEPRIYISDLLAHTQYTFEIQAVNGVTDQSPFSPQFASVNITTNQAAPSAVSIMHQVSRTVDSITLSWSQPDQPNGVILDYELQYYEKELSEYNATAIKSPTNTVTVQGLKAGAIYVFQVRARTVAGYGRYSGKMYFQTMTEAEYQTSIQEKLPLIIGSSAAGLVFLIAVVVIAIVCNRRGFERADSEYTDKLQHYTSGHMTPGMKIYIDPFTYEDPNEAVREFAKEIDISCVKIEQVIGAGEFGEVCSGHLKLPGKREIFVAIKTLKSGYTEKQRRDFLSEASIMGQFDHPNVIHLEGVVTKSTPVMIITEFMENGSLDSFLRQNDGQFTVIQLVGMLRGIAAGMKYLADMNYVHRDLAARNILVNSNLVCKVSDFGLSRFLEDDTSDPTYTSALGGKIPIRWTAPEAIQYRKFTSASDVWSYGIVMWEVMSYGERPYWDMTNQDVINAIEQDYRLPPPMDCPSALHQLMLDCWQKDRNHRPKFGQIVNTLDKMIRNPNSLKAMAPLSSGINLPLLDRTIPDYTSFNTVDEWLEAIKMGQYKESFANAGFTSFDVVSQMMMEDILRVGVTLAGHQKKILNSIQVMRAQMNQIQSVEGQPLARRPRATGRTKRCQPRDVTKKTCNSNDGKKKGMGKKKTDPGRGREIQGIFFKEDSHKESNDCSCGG

[18] = biological target: T5, Muscle, skeletal receptor tyrosine-protein kinase (Homo sapiens, UniProt O15146); test: Inhibition of human MuSk
T5 sequence (O15146 whole entry): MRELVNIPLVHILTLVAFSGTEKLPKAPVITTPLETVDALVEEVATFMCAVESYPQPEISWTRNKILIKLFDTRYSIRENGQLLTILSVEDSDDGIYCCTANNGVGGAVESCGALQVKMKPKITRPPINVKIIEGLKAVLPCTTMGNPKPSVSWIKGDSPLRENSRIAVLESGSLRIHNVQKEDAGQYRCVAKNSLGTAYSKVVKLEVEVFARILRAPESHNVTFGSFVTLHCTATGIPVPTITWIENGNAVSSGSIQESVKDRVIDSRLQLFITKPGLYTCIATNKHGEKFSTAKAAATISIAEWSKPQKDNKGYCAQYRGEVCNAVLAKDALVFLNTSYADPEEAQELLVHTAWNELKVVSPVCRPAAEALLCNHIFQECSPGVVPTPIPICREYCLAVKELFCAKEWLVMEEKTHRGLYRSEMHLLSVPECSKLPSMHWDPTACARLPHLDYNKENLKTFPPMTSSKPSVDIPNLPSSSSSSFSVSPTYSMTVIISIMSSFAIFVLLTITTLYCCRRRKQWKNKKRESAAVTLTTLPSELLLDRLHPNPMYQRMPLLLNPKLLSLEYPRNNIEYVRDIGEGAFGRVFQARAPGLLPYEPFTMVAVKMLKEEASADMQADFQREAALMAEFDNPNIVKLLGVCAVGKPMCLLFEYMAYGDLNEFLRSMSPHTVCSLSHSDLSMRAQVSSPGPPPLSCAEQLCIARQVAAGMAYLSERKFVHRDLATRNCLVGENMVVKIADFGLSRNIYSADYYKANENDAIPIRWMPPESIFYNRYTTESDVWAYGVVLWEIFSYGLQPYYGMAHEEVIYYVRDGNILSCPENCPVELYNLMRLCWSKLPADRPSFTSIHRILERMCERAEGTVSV

[19] = biological target: T2, Tyrosine-protein kinase JAK2; test: Inhibition of human JAK2
[20] = biological target: T6, High affinity nerve growth factor receptor (Homo sapiens, UniProt P04629); test: Inhibition of human TRKA
Target sequence in this assay (P04629 whole entry, the tested form may be a part): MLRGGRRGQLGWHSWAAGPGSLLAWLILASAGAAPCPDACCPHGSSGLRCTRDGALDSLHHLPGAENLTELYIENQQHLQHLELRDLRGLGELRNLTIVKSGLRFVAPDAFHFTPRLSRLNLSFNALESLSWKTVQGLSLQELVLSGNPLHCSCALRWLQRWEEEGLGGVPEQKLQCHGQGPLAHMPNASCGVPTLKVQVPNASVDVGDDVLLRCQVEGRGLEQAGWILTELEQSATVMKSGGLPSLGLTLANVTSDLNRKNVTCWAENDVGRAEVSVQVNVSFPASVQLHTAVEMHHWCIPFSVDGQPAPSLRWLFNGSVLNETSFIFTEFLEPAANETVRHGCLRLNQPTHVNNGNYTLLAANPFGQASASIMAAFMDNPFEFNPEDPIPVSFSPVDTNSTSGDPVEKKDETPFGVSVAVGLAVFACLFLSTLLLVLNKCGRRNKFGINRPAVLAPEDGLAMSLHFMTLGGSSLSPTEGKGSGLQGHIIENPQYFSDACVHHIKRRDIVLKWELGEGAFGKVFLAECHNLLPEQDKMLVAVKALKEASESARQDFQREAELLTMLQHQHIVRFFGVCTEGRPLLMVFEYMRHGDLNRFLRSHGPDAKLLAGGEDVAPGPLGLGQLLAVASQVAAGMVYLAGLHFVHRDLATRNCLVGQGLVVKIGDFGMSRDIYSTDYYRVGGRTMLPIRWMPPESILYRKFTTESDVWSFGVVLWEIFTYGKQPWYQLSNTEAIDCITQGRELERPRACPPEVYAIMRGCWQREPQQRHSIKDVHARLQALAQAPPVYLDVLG

[21] = biological target: T6, High affinity nerve growth factor receptor; test: Inhibition of human truncated TrkA in human MCF10a cells by time-resolved fluorimetry; type: cell-based
Target sequence in this assay (P04629 33-796 limits assumed): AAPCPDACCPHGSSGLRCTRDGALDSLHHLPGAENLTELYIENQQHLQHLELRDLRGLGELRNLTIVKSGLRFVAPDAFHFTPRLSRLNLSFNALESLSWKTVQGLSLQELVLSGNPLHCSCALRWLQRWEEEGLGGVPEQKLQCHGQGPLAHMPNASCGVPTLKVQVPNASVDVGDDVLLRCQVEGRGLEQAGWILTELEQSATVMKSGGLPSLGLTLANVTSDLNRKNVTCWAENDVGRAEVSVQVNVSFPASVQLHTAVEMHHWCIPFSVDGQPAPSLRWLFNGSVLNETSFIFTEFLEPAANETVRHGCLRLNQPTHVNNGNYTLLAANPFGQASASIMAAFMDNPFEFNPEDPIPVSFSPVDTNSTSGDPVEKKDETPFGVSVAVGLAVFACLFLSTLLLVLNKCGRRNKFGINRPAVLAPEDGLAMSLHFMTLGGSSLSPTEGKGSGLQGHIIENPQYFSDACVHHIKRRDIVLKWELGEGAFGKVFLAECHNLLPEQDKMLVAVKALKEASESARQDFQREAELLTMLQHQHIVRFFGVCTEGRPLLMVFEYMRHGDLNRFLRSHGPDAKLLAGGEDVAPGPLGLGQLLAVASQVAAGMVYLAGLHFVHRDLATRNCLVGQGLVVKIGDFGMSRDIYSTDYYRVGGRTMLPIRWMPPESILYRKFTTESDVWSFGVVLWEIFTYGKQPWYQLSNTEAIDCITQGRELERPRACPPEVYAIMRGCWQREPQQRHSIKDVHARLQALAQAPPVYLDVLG

[22] = biological target: Receptor-type tyrosine-protein kinase FLT3 (Homo sapiens, UniProt P36888, D835Y); test: Inhibition of human FLT3 D835Y mutant
Mus musculus [23] = test: Inhibition of STAT5 phosphorylation in NCr mouse tansplanted with TEL-JAK2 expressing mouse BA/F3 cells at 10 mg/kg, po upto 2 hrs; type: functional, organism-based; parameters: dose 10 mg/kg; conditions: BaF3
[24] = Free drug level in plasma of NCr mouse tansplanted with TEL-JAK2 expressing mouse BA/F3 cells at 10 mg/kg, po after 6 hrs; type: ADME, organism-based, BaF3; parameters: dose 10 mg/kg, route oral; conditions: in vivo
[25] = biological target: T1, Tyrosine-protein kinase JAK3; test: Inhibition of human JAK3
Mus musculus [26] = test: Inhibition of STAT5 phosphorylation in NCr mouse tansplanted with TEL-JAK2 expressing mouse BA/F3 cells at 5 mg/kg, po measured at 6 hrs; type: functional; conditions: BaF3, 6 h
[27] = Plasma concentration in NCr mouse tansplanted with TEL-JAK2 expressing mouse BA/F3 cells at 10 mg/kg, po after 2 hrs; type: ADME, organism-based, BaF3; parameters: dose 10 mg/kg, route oral
[28] = biological target: Tyrosine-protein kinase Lck (Homo sapiens, UniProt P06239); test: Inhibition of human Lck
Mus musculus [29] = test: Inhibition of STAT5 phosphorylation in NCr mouse tansplanted with TEL-JAK2 expressing mouse BA/F3 cells at 5 mg/kg, po upto 2 hrs; type: functional, organism-based; parameters: dose 5 mg/kg; conditions: BaF3
Mus musculus [30] = test: Inhibition of STAT5 phosphorylation in NCr mouse tansplanted with TEL-JAK2 expressing mouse BA/F3 cells at 10 mg/kg, po measured at 6 hrs; type: functional; conditions: BaF3, 6 h

T2 sequence (O60674 whole entry): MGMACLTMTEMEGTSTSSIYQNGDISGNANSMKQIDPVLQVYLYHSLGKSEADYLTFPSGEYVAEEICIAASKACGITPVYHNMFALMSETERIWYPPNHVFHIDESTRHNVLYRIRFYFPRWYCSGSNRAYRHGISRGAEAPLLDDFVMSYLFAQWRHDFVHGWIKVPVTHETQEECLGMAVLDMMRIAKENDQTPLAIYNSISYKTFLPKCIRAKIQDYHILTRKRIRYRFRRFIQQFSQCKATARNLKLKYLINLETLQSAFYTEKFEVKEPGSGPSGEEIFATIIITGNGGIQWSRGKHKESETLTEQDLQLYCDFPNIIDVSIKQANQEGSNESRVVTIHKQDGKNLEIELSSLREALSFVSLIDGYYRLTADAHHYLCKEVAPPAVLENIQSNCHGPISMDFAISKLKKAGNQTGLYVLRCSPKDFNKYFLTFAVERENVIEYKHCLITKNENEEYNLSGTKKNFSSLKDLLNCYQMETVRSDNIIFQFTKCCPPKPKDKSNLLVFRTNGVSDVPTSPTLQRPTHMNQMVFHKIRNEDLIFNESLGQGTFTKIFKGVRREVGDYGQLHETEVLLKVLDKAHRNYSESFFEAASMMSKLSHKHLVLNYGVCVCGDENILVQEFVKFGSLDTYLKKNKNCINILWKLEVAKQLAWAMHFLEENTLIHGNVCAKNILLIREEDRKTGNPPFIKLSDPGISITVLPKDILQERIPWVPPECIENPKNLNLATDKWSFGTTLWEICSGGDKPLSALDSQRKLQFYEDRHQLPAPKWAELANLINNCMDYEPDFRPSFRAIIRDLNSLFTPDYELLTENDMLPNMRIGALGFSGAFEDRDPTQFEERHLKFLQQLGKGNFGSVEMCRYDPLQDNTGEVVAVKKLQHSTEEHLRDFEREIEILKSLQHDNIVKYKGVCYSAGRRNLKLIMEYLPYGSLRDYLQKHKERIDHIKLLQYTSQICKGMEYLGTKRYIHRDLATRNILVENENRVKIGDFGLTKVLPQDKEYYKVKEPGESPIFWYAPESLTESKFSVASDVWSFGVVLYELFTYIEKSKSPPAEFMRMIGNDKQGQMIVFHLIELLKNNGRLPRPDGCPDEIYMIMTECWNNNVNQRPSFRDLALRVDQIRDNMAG
Tyrosine-protein kinase Lck, sequence (P06239 whole entry): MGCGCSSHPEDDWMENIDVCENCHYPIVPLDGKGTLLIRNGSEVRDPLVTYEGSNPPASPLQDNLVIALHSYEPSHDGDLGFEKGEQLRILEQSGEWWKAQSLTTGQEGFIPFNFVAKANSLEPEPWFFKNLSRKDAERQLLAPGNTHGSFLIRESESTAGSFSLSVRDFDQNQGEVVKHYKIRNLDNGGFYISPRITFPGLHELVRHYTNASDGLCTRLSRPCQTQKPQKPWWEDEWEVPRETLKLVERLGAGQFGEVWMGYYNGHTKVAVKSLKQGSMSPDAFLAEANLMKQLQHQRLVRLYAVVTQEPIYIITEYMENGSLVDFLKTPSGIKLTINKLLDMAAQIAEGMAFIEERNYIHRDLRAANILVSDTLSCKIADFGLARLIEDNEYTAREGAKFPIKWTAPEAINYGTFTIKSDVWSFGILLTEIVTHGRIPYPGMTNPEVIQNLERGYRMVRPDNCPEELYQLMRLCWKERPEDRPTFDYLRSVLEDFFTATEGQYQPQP

| Compound | pIC50 [1] | half-life [2] [h] | microsomal CLint [3] [µL/min/mg] | solubility [4] [µM] | pIC50 [5] | clearance [6] [mL/min/kg] | bioavailability [7] [%] | GI50 [9] [nM] | Vd [10] [L/kg] | GI50 [11] [nM] | other results |
| --- | --- | --- | --- | --- | --- | --- | --- | --- | --- | --- | --- |
| Cc1cc(Nc2nc(N[C@@H](C)c3ccc(F)cc3)c(C#N)cc2F)n[nH]1 | 8.05 | 5.7 | 17 | 13 (≈ 4.61 µg/mL) | > 8.52 | 7.5 | 44 | 24 | 2.6 | 350 | GI50 [8]: 33 nM |
| Cc1cc(Nc2nc(N[C@@H](C)c3ccc(F)cn3)c(C#N)cc2Cl)n[nH]1 | 7.68 | 2.7 | 5 | 100 (≈ 37.2 µg/mL) | > 8.52 | 2.3 | 47 | 40 | 0.52 | 430 |  |
| CC(C)Oc1cc(Nc2nc(N[C@@H](C)c3ccc(F)cc3)c(C#N)cc2F)n[nH]1 | 5.76 |  |  |  | 6.16 |  |  |  |  |  |  |
| Cc1cc(Nc2nc(N[C@@H](C)c3ccc(F)cn3)c(C#N)cc2F)n[nH]1 | 8.15 | 2.2 | 5 | 303 (≈ 108 µg/mL) | > 8.52 | 4.8 | 39 | 36 | 0.84 | 1300 | bioavailability [12]: 100%; concentration at 6 h [13]: 328 ng/mL; fraction unbound [14]: 0.053; clearance [15]: 7.4 mL/min/kg; inhibition (Mus musculus [16]): Active; half-life [17]: 3.6 h; pIC50 (Ephrin type-B receptor 2): < 5.00; pIC50 [18]: 6.65; pIC50 [19]: > 9.00; pIC50 [20]: 8.52; IC50 [21]: 276 nM; pIC50 [22]: 7.09; inhibition (Mus musculus [23]): Active; Cp(f) [24]: 49 nM; pIC50 [25]: 7.82; inhibition in vivo at 5 mg/kg (Mus musculus [26]): 54%; concentration at 2 h [27]: 1100 ng/mL; pIC50 [28]: 6.67; inhibition (Mus musculus [29]): Active; inhibition in vivo at 10 mg/kg (Mus musculus [30]): 54% |
| C[C@H](Nc1nc(Nc2cc(C3CC3)[nH]n2)c(F)cc1C#N)c1ccc(F)cc1 | 6.74 |  |  |  | 8.52 |  |  | 170 |  | 1000 |  |
